The values that follow are results of earlier work, collected in patent publication US10028900B2, “Photostable sunscreen composition for topical application” (KANCOR INGREDIENTS LTD, priority 2014, dated 2018).

For the series the following is noted: oil / water.

In the case of `COc1ccc(C(=O)CC(=O)c2ccc(C(C)(C)C)cc2)cc1` [Avobenzone, 1-(4-methoxyphenyl)-3-(4-tert-butylphenyl)propane-1,3-dione], the “Solubility (in words)” value is “oil soluble and water insoluble”.
`CCCCC(CC)COC(=O)/C=C/c1ccc(OC)cc1` (centres unmarked) [Octyl-methoxy cinnamate, 2-ethylhexyl (2E)-3-(4-methoxyphenyl) prop-2-enoate]: the “Solubility (in words)” value was “oil soluble and water insoluble”.
